Reference: patent US5672715A, “Herbicidal substituted 3-aryl-pyrazoles” (Monsanto Company, priority 1995, dated 1997)
Where two headings read alike, the source gives them in different places.

Tests used:
Assay type in all cases: in vivo
Soybean [1] = assay: post-emergence herbicide test; conditions: Glycine max, post-emergence, read-out: % plant inhibition
Outline: (§1)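 Sown pans kept on a greenhouse bench with irrigation or subirrigation until plants reached two to three weeks, then sprayed at 170.3 kPa (10 psig). Spray mix held about 0.4% by volume emulsifier; total volume 1870 L/Ha. Result expressed as percent inhibition.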

Barnyardgrass [2] = assay: post-emergence herbicide test; conditions: Echinochloa crus-galli, post-emergence, read-out: % plant inhibition
Outline: as §1

Blackgrass = assay: post-emergence herbicide test; conditions: Alopecurus myosuroides, post-emergence, read-out: % plant inhibition; for inhibition at 7.95803 g/ha: 0.0071 lb/A; for inhibition at 40.0143 g/ha: 0.0357 lb/A; for inhibition at 200.072 g/ha: 0.1785 lb/A; for inhibition at 1000.92 g/ha: 0.893 lb/A
Outline: as §1

Cocklebur [3] = assay: post-emergence herbicide test; conditions: Xanthium strumarium, post-emergence, read-out: % plant inhibition
Outline: as §1

Corn [4] = assay: post-emergence herbicide test; conditions: Zea mays, post-emergence, read-out: % plant inhibition
Outline: as §1

Bedstraw Catchweed = assay: post-emergence herbicide test; conditions: Galium aparine, post-emergence, read-out: % plant inhibition
Outline: as §1

Soybean [5] = assay: pre-emergence herbicide test; conditions: Glycine max, pre-emergence, read-out: % plant inhibition
Outline: (§2)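 Soil-applied pre-emergence screen: compound added to cover topsoil over sown seeds, pans held on greenhouse bench with subirrigation, % inhibition scored ~2 weeks later.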

Barnyardgrass [6] = assay: pre-emergence herbicide test; conditions: Echinochloa crus-galli, pre-emergence, read-out: % plant inhibition
Outline: as §2

Cocklebur [7] = assay: pre-emergence herbicide test; conditions: Xanthium strumarium, pre-emergence, read-out: % plant inhibition
Outline: as §2

Velvetleaf = assay: pre-emergence herbicide test; conditions: Abutilon theophrasti, pre-emergence, read-out: % plant inhibition
Outline: as §2

Rice = assay: pre-emergence herbicide test; conditions: Oryza sativa, read-out: % plant inhibition
Outline: as §2

Morning Glory = assay: pre-emergence herbicide test; conditions: Ipomoea, pre-emergence, read-out: % plant inhibition
Outline: as §2

Corn [8] = assay: pre-emergence herbicide test; conditions: Zea mays, pre-emergence, read-out: % plant inhibition
Outline: as §2

Yellow Foxtail = assay: pre-emergence herbicide test; conditions: Setaria, read-out: % plant inhibition
Outline: as §2

Yellow Nutsedge = assay: pre-emergence herbicide test; conditions: Cyperus, read-out: % plant inhibition
Outline: as §2

Work on `COc1cc(-c2nn(C)c(C(F)(F)F)c2C)c(F)cc1[N+](=O)[O-]` [Compound 36] yielded an inhibition at 7.95803 g/ha (Soybean [1]; 0.0071 lb/A) of 15%, an inhibition at 40.0143 g/ha (Soybean [1]; 0.0357 lb/A) of 25% and an inhibition at 200.072 g/ha (Soybean [1]; 0.1785 lb/A) of 35%. It also gave an inhibition at 1000.92 g/ha (Soybean [1]; 0.893 lb/A) of 45%, an inhibition at 7.95803 g/ha (Barnyardgrass [2]; 0.0071 lb/A) of 0% and an inhibition at 40.0143 g/ha (Barnyardgrass [2]; 0.0357 lb/A) of 0%. The inhibition at 200.072 g/ha (Barnyardgrass [2]; 0.1785 lb/A) was 45%, the inhibition at 1000.92 g/ha (Barnyardgrass [2]; 0.893 lb/A) was 50% and the inhibition at 7.95803 g/ha (Blackgrass; Table 4a) was 0%. It also gave an inhibition at 7.95803 g/ha (Blackgrass; Table 5a) of 0%, an inhibition at 40.0143 g/ha (Blackgrass; Table 4a) of 0% and an inhibition at 40.0143 g/ha (Blackgrass; Table 5a) of 10%. For the same compound, the inhibition at 200.072 g/ha (Blackgrass; Table 4a) was 0%, the inhibition at 200.072 g/ha (Blackgrass; Table 5a) was 25% and the inhibition at 1000.92 g/ha (Blackgrass; Table 4a) was 0%. It also gave an inhibition at 1000.92 g/ha (Blackgrass; Table 5a) of 60%, an inhibition at 7.95803 g/ha (Cocklebur [3]; 0.0071 lb/A) of 75% and an inhibition at 40.0143 g/ha (Cocklebur [3]; 0.0357 lb/A) of 0%. It also gave an inhibition at 200.072 g/ha (Cocklebur [3]; 0.1785 lb/A) of 60%, an inhibition at 1000.92 g/ha (Cocklebur [3]; 0.893 lb/A) of 98% and an inhibition at 7.95803 g/ha (Corn [4]; 0.0071 lb/A) of 0%. The inhibition at 40.0143 g/ha (Corn [4]; 0.0357 lb/A) was 25%, the inhibition at 200.072 g/ha (Corn [4]; 0.1785 lb/A) was 30% and the inhibition at 1000.92 g/ha (Corn [4]; 0.893 lb/A) was 40%. For the same compound, the inhibition at 7.95803 g/ha (Bedstraw Catchweed; 0.0071 lb/A) was 0%, the inhibition at 40.0143 g/ha (Bedstraw Catchweed; 0.0357 lb/A) was 25% and the inhibition at 200.072 g/ha (Bedstraw Catchweed; 0.1785 lb/A) was 50%. For the same compound, the inhibition at 1000.92 g/ha (Bedstraw Catchweed; 0.893 lb/A) was 75%, the inhibition at 7.95803 g/ha (Soybean [5]; 0.0071 lb/A) was 0% and the inhibition at 40.0143 g/ha (Soybean [5]; 0.0357 lb/A) was 0%. The inhibition at 200.072 g/ha (Soybean [5]; 0.1785 lb/A) was 0%, the inhibition at 1000.92 g/ha (Soybean [5]; 0.893 lb/A) was 10% and the inhibition at 7.95803 g/ha (Barnyardgrass [6]; 0.0071 lb/A) was 0%. The inhibition at 40.0143 g/ha (Barnyardgrass [6]; 0.0357 lb/A) was 20%, the inhibition at 200.072 g/ha (Barnyardgrass [6]; 0.1785 lb/A) was 90% and the inhibition at 1000.92 g/ha (Barnyardgrass [6]; 0.893 lb/A) was 100%. For the same compound, the inhibition at 7.95803 g/ha (Cocklebur [7]; 0.0071 lb/A) was 0%, the inhibition at 40.0143 g/ha (Cocklebur [7]; 0.0357 lb/A) was 20% and the inhibition at 200.072 g/ha (Cocklebur [7]; 0.1785 lb/A) was 0%. It also gave an inhibition at 1000.92 g/ha (Cocklebur [7]; 0.893 lb/A) of 85%, an inhibition at 7.95803 g/ha (Velvetleaf; 0.0071 lb/A) of 20% and an inhibition at 40.0143 g/ha (Velvetleaf; 0.0357 lb/A) of 20%. It also gave an inhibition at 200.072 g/ha (Velvetleaf; 0.1785 lb/A) of 98%, an inhibition at 1000.92 g/ha (Velvetleaf; 0.893 lb/A) of 100% and an inhibition at 7.95803 g/ha (Rice; 0.0071 lb/A) of 0%. It also gave an inhibition at 40.0143 g/ha (Rice; 0.0357 lb/A) of 0%, an inhibition at 200.072 g/ha (Rice; 0.1785 lb/A) of 0% and an inhibition at 1000.92 g/ha (Rice; 0.893 lb/A) of 65%. The inhibition at 7.95803 g/ha (Morning Glory; 0.0071 lb/A) was 0%, the inhibition at 40.0143 g/ha (Morning Glory; 0.0357 lb/A) was 10% and the inhibition at 200.072 g/ha (Morning Glory; 0.1785 lb/A) was 60%. It also gave an inhibition at 1000.92 g/ha (Morning Glory; 0.893 lb/A) of 90%, an inhibition at 7.95803 g/ha (Corn [8]; 0.0071 lb/A) of 0% and an inhibition at 40.0143 g/ha (Corn [8]; 0.0357 lb/A) of 10%. For the same compound, the inhibition at 200.072 g/ha (Corn [8]; 0.1785 lb/A) was 55%, the inhibition at 1000.92 g/ha (Corn [8]; 0.893 lb/A) was 90% and the inhibition at 7.95803 g/ha (Yellow Foxtail; 0.0071 lb/A) was 0%. It also gave an inhibition at 40.0143 g/ha (Yellow Foxtail; 0.0357 lb/A) of 15%, an inhibition at 200.072 g/ha (Yellow Foxtail; 0.1785 lb/A) of 98% and an inhibition at 1000.92 g/ha (Yellow Foxtail; 0.893 lb/A) of 100%. For the same compound, the inhibition at 7.95803 g/ha (Yellow Nutsedge; 0.0071 lb/A) was 0%, the inhibition at 40.0143 g/ha (Yellow Nutsedge; 0.0357 lb/A) was 0% and the inhibition at 200.072 g/ha (Yellow Nutsedge; 0.1785 lb/A) was 0%. For the same compound, the inhibition at 1000.92 g/ha (Yellow Nutsedge; 0.893 lb/A) was 0%.
